Experimental data as given in patent US20170045494A1, “SYSTEMS AND METHODS FOR IDENTIFYING COAGULOPATHIES” (T2 Biosystems, Inc., priority 2014, published 2017).

B1: abciximab (antibody, chains of the INN, looked up, V domains shown)
VH: EVQLQQSGTVLARPGASVKMSCEASGYTFTNYWMHWVKQRPGQGLEWIGAIYPGNSDTSYIQKFKGKAKLTAVTSTTSVYMELSSLTNEDSAVYYCTLYDGYYVFAYWGQGTLVTVSA
VL: EIVLTQSPVTLSVTPGDSVSLSCRASRDISNNLHWFQQTSHESPRLLIKYASQSMSGIPSRFSGSGSGTDFTLSINSVETEDFGMYFCQQTNSWPYTFGGGTKLEIK
modifications: Fab

Legend:
Assay type in all cases: cell-based, human
[1] = tested on: re-calcified citrated blood clotted with thrombin; assay: T2MR monitoring of fibrinolysis of thrombin-clotted blood; conditions: tPA added 30 minutes after 3 U/ml thrombin
Experimental: Blood clotting was initiated by addition of 2 μL of a 0.2 M CaCl2 solution and 2 μL of thrombin (Sigma-Aldrich, St. Louis, Mo., final concentration 0.1-3.0 U/ml) to 34 μL of blood in a 200 μL PCR tube (Eppendorf, Hauppauge, N.Y.). All components were pre-warmed for 1 min at 37° C. before mixing. Samples were mixed by three aspiration and dispersion cycles using a pipette, then put into the T2MR reader for measurement. Typical run length was 30 min with a 10 s sampling rate. For some experiments, data collection time was extended to 1 hr.
To establish T2MR signatures for fibrinolysis, tissue plasminogen activator (tPA, Alteplase, Genentech, South San Francisco, Calif.) was added to samples clotted by thrombin. Blood clotting was initiated as described above, and the sample was incubated for […] to allow for complete clot contraction. Then, 0.5-1 μM tPA was added to clotted and contracted samples. Care was taken not to disturb clots, which were usually attached to the tube wall. The pipette tip was carefully placed into the visible serum layer on the tube side opposite to the contracted clot, and 3 μL of tPA solution was added with a single dispensing of the pipettor. The tPA solutions were made from a stock solution prepared according to manufacturer instructions using 0.15 M sodium chloride, pH 7.4.
We measured the dependencies of the T2MR signals during clotting of re-calcified citrated blood samples from healthy donors initiated by adding 3 U/ml thrombin. Thrombin activates platelets and cleaves fibrinogen to form a three-dimensional fibrin network stabilized by factor XIIIa. Addition of thrombin led to rapid formation of a gelatinous meshwork that filled the sample volume accompanied by a small, rapid decrease in the T2MR signal over tens of seconds due to the sample transitioning from a liquid to gel state. […]
We then assessed the sensitivity of the T2MR platform to fibrinolysis by adding tissue-type plasminogen activator (tPA) to the clotted samples 30 minutes after thrombin.

citrated blood [2] = assay: T2MR clot strength (ΔT2) after calcium and kaolin activation; conditions: ex vivo addition at 4 or 8 μg/ml; 13 minutes after activation; samples from 3 healthy donors
Experimental: (§1) A 0.5 mg/ml solution of abciximab was prepared by diluting the stock 10 mg/5 ml solution by […] in saline. The abciximab-treated blood samples were incubated for at least 5 min prior to clotting. Clotting was initiated by adding 2 μL 0.2 M CaCl2 and 2 μL TEG kaolin to 34 μL of abciximab-treated blood sample. To compare the T2MR signal to TEG MA, a ΔT2 parameter was calculated by taking the difference in T2 between the upper and middle peaks at a time point 13 min after adding calcium and kaolin. The TEG MA values were measured on the same samples following manufacturer instructions.
(§2) For comparison between T2MR and TEG, calcium kaolin activation of citrated blood was used and normal donor samples were treated with various amounts of abciximab, an inhibitor of the platelet glycoprotein allbβ3 receptor that binds fibrin and is essential for clot contraction.

citrated blood [3] = assay: Thromboelastography maximum amplitude (TEG MA) after calcium and kaolin activation; conditions: ex vivo addition at 4 or 8 μg/ml; samples from 3 healthy donors
Experimental: as §1, §2

Molecule | T2 value of the middle peak after tPA addition [1] | T2 value of the third peak after tPA addition (persisted) [1] | T2 value of the upper peak after tPA addition [1] | ΔT2 (difference between upper and middle T2 values in the T2MR signature) (citrated blood [2]) | TEG MA (citrated blood [3])
Alteplase [tPA] | decreased from 250 to 175 | ~100 ms | decreased rapidly |  | 
B1 |  |  |  | < 100 ms | less than 40
